Experimental data published in US20250073184A1, “CANNABIGEROQUINONE COMPOUNDS, COMPOSITIONS INCLUDING SUCH COMPOUNDS, AND USES OF SUCH COMPOUNDS AND COMPOSITIONS” (Juva Life, Inc., priority 2021, published 2025).
Read-outs that look alike come from different tables or passages of the source.

Assays:
[1] = tested on: TNFa; test: TNFa secretion assay in human PBMCs (LPS, ELISA); assay type: cell-based; conditions: read-out: Inhibitory Activity EC50, TNF
Experimental: (§1) Fetal bovine serum (FBS) was obtained from ThermoFisher (Cat #16000044). • Other reagents: 96 well TC plates were obtained from ThermoFisher (Cat #07-2000-90). LPS was obtained from Sigma (Cat #L3024).
(§2) TNF-alpha was assessed using a standard ELISA protocol. Cryopreserved PBMCs were thawed in a water bath and transferred to 50 mL polypropylene tubes. The cells were washed two times with 25 mL of RPMI medium supplemented with 5% of heat-inactivated FBS and re-suspended at a density of 4.5^^6 cells/mL. The cells were plated into 96 well TC late (100 uL/well). Serially diluted compound was added to the cells in duplicate wells for each concentration. Control wells received DMSO only (0.3% final). The cells were pre-incubated with compound for 1 hr. After pre-incubation, the cells were stimulated by LPS (100 ng/mL) for 6 hr. Control samples with and without LPS in the absence of compound were assembled in each test plate. TNFa was detected in media supernatants by using a sandwich anti-TNFa ELISA kit (BD Biosciences) according to protocol provided by the manufacturer. ELISA readout (optical density at 450 nm) is commensurable with the amount of TNFa produced by the cells. Assay window was determined in each experiment by comparing average OD450 values in stimulated and un-stimulated samples in the absence of compound. ELISA calibration was performed in each detection plate using serially diluted recombinant human TNFa, to ensure that OD450 values for all test samples were within linear range of detection.%-Inhibition by compound was calculated using following equation:
(§3) where OD450100% is optical density in control samples stimulated with LPS without compound, OD4500% is optical density in unstimulated control samples, and OD450compound is optical density in a sample stimulated with LPS in the presence of compound.
(§4) The calculated %-Inh values were plotted against compound concentration. To determine IC50 values, dose-response curves were fitted by a 4-parameter sigmoid inhibition model using XLFit® software (IDBS).

[2] = tested on: IL-6; test: IL-6 secretion assay in human PBMCs (LPS, ELISA); assay type: cell-based; conditions: read-out: Inhibitory Activity EC50, IL6
Experimental: as §1
as §2, with “IL-6” for “TNF-alpha”, “IL-6” for “TNFa”, “anti-IL-6” for “anti-TNFa”, “IL-6,” for “TNFa,”, “equation.” for “equation:”
as §3, §4

[3] = tested on: IL-1β; test: IL-1β inhibitory activity; assay type: cell-based
[4] = molecular target: T1, recombinant human LOX-5 (Homo sapiens, UniProt P09917); test: Biochemical LOX-5 assay
T1 construct: expressed in insect cells (Amino Acids 1-674) was obtained from Cayman; purchased Cayman 60402; host or cells: insect cells
T1 sequence (P09917 1-674): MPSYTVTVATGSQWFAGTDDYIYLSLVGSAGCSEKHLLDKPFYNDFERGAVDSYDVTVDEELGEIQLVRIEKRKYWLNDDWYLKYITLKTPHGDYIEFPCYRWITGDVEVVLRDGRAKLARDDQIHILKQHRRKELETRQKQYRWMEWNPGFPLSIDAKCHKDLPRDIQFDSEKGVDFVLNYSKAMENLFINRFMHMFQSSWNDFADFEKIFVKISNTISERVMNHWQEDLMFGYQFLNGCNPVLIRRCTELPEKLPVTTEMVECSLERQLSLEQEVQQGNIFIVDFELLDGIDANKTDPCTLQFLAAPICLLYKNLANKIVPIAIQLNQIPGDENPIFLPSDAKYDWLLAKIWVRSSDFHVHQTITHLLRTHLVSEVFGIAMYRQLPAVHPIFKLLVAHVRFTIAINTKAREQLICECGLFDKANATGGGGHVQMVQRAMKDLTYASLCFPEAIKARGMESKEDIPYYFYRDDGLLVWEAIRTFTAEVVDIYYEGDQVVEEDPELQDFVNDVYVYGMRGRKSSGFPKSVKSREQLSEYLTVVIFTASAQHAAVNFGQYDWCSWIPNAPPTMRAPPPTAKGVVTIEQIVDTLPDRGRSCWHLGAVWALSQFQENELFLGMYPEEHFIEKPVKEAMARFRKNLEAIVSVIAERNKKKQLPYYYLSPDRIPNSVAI
Experimental: The LOX-5 assay was performed in assay buffer comprising: 50 mM Tris (pH 7.5), 2 mM EDTA, 2 mM CaCl2), 3 uM AA, 10 uM ATP, 10 uM H2DCFDA, and recombinant enzyme (50 mU per 20 ul reaction, as defined by manufacturer). Serially diluted compounds were prepared in DMSO in Echo qualified 384 well plates. An assay buffer was then prepared without AA and ATP supplemented with 20 uM H2DCFDA. 10 uL of the supplemented buffer was dispensed into control (no enzyme) wells in the black 384 well assay plate. Next, a 2× enzyme solution was prepared, comprising 100 mU LOX-5 enzyme in the supplemented assay buffer. 10 uL of the 2× enzyme solution was then dispensed into test wells in the black 384 well assay plate. Serially diluted compounds were added to the assay plate by acoustic dispensing (Labcyte 550). Control wells received DMSO only.
Next, the 2× substrate was prepared to comprise 6 uM arachidonic acid and 20 uM ATP in the assay buffer. 10 uL of the 2× substrate was then added to all wells in the assay plate. The plate was incubated for 20 min.
[formula] • where RFU100% is fluorescence in control samples without compound, RFU0% is fluorescence in control samples without LOX-5, and RFUcompound fluorescence in a sample with compound.
The calculated %-Inh values were plotted against compound concentration. To determine EC50 values, dose-response curves were fitted by a 4-parameter sigmoid inhibition model using XLFit® software (IDBS).

[5] = PBMC, human PBMCs, LPS 100 ng/mL 6 hr
[6] = recombinant enzyme, read-out: Inhibitory Activity EC50, 5-Lox
[7] = human PBMCs, LPS 100 ng/mL 6 hr

Row | Compound | EC50 [1, 5] [µM] | EC50 [2, 5] [µM] | EC50 [3] [µM] | EC50 [4] [µM] | EC50 ([1]; Homo sapiens, PBMC, 6 h) [µM] | EC50 ([2]; Homo sapiens, PBMC, 6 h) [µM] | EC50 [4, 6] [µM] | EC50 [1, 7] [µM] | EC50 [2, 7] [µM] | stronger inhibition for 5-Lox compared to Cox-2 [4]
1 | CCCCCc1cc(OC(C)=O)c(C/C=C(\C)CCC=C(C)C)c(O)c1OC(C)=O [Formula XLIII] | 8.68 | > 10 | 0.89 | 0.34 |  |  |  |  |  | 
2 | CCCCCc1cc(OC)c(C/C=C(\C)CCC=C(C)C)c(O)c1OC [Formula XLII] | > 10 | > 10 | > 10 | 0.21 |  |  |  |  |  | 
3 | CCCCCC1=C(NC)C(=O)C(C/C=C(\C)CCC=C(C)C)=C(O)C1=O [Formula XLI] | > 10 | > 10 | 0.12 | 0.48 |  |  |  |  |  | 
4 | CCCCCc1cc(O)c(C/C=C(\C)CCC=C(C)C)c(O)c1O [Formula XXXIX] |  |  | 0.89 |  | 6.2 | > 10 | 0.2 |  |  | 
5 | Cannabigerol Quinone [Formula VI] |  |  | 5.3 |  |  |  | 0.27 | 18.5 | 17.9 | over 200 fold
